According to patent US20220339124A1 (CADILA HEALTHCARE LIMITED, priority 2019, published 2022):
Where a name gives a salt, the structure may show the parent alone.

Tests used:
[1] = humans, cited from earlier work
[2] = endocyclic and exocyclic double bonds to epoxides; tertiary amine to N-oxide; cited from earlier work
in vivo [3] = conditions: male, Wistar, rat, plasma
Description: A serial blood sampling was performed from each animal. The blood samples were collected at 0.00 (pre-dose), 0.08, 0.25, 0.5, 1, 2, 4, 6, 8, 24 hrs. […] Pharmacokinetic parameters were calculated using the non-compartmental analysis (NCA) module of Phoenix-WinNonlin® software version 6.4.

in vivo [4] = assay: in vivo
Description: A serial blood sampling was performed from each animal. The blood samples were collected at 0.00 (pre-dose), 0.083, 0.25, 0.5, 1, 2, 4, 6, 8, 24 hrs. […] Pharmacokinetic parameters were calculated using the non-compartmental analysis (NCA) module of Phoenix-WinNonlin® software version 6.4.

in vivo [5] = conditions: male, Wistar, rat, inhaled or intranasal, mean ± SD, N=4; for half-life: T½
[6] = intranasal, 0.05, 0.1 and 0.2 mg/kg, rats
[7] = inhaled or intranasal, 0.02 mg/kg
[8] = New Zealand white, rabbit, plasma, inhaled or intranasal, 0.011 mg/kg
[9] = male, Wistar, rat, inhaled or intranasal, 0.4 mg/kg
[10] = male, Wistar, rat, po, 1.05 mg/kg
[11] = male, beagle, dog, plasma, inhaled or intranasal, 0.26 mg/kg
[12] = male, beagle, dog, plasma, po, 0.51 mg/kg
[13] = in vivo, planned 0.2 mg/kg (actual 0.14 mg/kg)
[14] = plasma, planned 0.05 mg/kg (actual 0.03 mg/kg)
[15] = plasma, planned 0.1 mg/kg (actual 0.07 mg/kg)

SMILES: CN(C)CCC=C1c2ccccc2C=Cc2ccccc21 [Cyclobenzaprine hydrochloride, cyclobenzaprine hydrochloride]
- dose excreted in the urine as unchanged drug ([1]; study with 14C-labelled drug): about 1%

SMILES: CN(C)CCC=C1c2ccccc2C=Cc2ccccc21 [cyclobenzaprine, 3-(5H-Dibenzo[a,d]cyclohepten-5-ylidene)-N,N-dimethyl-1-propanamine]
- stability towards oxidation [2]: very unstable
- AUC(0-inf) (in vivo [3]; [7]): 2.59 ng·h/mL
- AUC(0-t) (in vivo [3]; [7]): 2.32 ng·h/mL
- Cmax (in vivo [3]; [7]): 2.83 ng/mL
- Tmax (in vivo [3]; [7]): 0.083 h
- half-life (in vivo [3]; [7]): 1.07 h
- AUC(0-inf) (in vivo [3]; po, 0.885 mg/kg): 3.26 ng·h/mL
- AUC(0-t) (in vivo [3]; po, 0.885 mg/kg): 2.54 ng·h/mL
- Cmax (in vivo [3]; po, 0.885 mg/kg): 1.2 ng/mL
- Tmax (in vivo [3]; po, 0.885 mg/kg): 1 h
- half-life (in vivo [3]; po, 0.885 mg/kg): 2.61 h
- AUC(0-inf) (in vivo [4]; [8]): 0.92 ng·h/mL
- AUC(0-t) (in vivo [4]; [8]): 0.52 ng·h/mL
- Cmax (in vivo [4]; [8]): 0.56 ng/mL
- MRT inf (in vivo [4]; [8]): 2.43 h
- MRT last (in vivo [4]; [8]): 0.87 h
- Vd/F (in vivo [4]; [8]): 28.6 L/kg
- Cl—F—pred (in vivo [4]; intranasal, 0.011 mg/kg): 199.56 mL/min/kg
- HL—Lambda—z (in vivo [4]; intranasal, 0.011 mg/kg): 1.65 h
- DNAUC (AUC normalized at 1 mg/kg dose) (in vivo [4]; intranasal, 0.26 mg/kg): 385.92
- DNAUC (AUC normalized at 1 mg/kg dose) (in vivo [4]; male, Wistar, rat, inhaled or intranasal): 130.85
- AUC(0-inf) (in vivo [4]; [9]): 52.3 ± 12.8 ng·h/mL
- AUC(0-t) (in vivo [4]; [9]): 51.2 ± 12.8 ng·h/mL
- Cmax (in vivo [4]; [9]): 31.3 ± 10.1 ng/mL
- half-life (in vivo [4]; [9]): 2.79 ± 2.35 h
- DNAUC (AUC normalized at 1 mg/kg dose) (in vivo [4]; male, Wistar, rat, po): 3.11
- AUC(0-inf) (in vivo [4]; [10]): 3.27 ± 0.42 ng·h/mL
- AUC(0-t) (in vivo [4]; [10]): 2.98 ± 0.42 ng·h/mL
- Cmax (in vivo [4]; [10]): 1.74 ± 0.95 ng/mL
- half-life (in vivo [4]; [10]): 1.43 ± 0.33 h
- AUC(0-inf) (in vivo [4]; [11]): 103 ± 26.2 ng·h/mL
- AUC(0-t) (in vivo [4]; [11]): 100 ± 25.9 ng·h/mL
- Cmax (in vivo [4]; [11]): 62.3 ± 13.8 ng/mL
- Tmax (in vivo [4]; [11]): 0.083 h
- half-life (in vivo [4]; [11]): 6.09 ± 2.27 h
- AUC(0-inf) (in vivo [4]; [12]): 7.58 ± 5.64 ng·h/mL
- AUC(0-t) (in vivo [4]; [12]): 7.03 ± 5.65 ng·h/mL
- Cmax (in vivo [4]; [12]): 1.61 ± 1.21 ng/mL
- Tmax (in vivo [4]; [12]): 1.5 h
- half-life (in vivo [4]; [12]): 2.03 ± 0.64 h
- Plasma concentrations (in vivo [4]; oral, 0.442 mg/kg, n=4, rabbits): below the limit of quantification
- DNAUC (AUC normalized at 1 mg/kg dose) (in vivo [4]; oral, 0.51 mg/kg): 13.52
- Tmax (in vivo [4]; rat, inhaled or intranasal, 0.4 mg/kg): 0.083 h
- Tmax (in vivo [4]; rat, po, 1.05 mg/kg): 0.5 (0.25-1.0) Hour
- plasma clearance [1]: 0.7 L/min
- effective half-life ([1]; range 8-37 hours, n=18): 18 h
- AUC(0-t) (in vivo [5]; [13]): 22.4 ± 10.1 ng·h/mL
- half-life (in vivo [5]; in vivo, planned 0.05 mg/kg (actual 0.03 mg/kg)): 1.9 ± 0.3 h
- half-life (in vivo [5]; in vivo, planned 0.1 mg/kg (actual 0.07 mg/kg)): 1.6 ± 0.2 h
- half-life (in vivo [5]; [13]): 2.2 ± 0.3 h
- AUC(0-t) (in vivo [5]; [14]): 4.8 ± 1.4 ng·h/mL
- AUC(0-t) (in vivo [5]; [15]): 10.6 ± 3 ng·h/mL
- Cmax (in vivo [5]; [14]): 4.6 ± 1.7 ng/mL
- Cmax (in vivo [5]; [15]): 16.4 ± 11.6 ng/mL
- Cmax (in vivo [5]; plasma, planned 0.2 mg/kg (actual 0.14 mg/kg)): 27.6 ± 26.4 ng/mL
- Bioavailability versus dose [6]: Dose dependent linear bioavailability
